{"source": "paper PMC6468747", "about": "(Cancers, 2019)", "key": {"[1]": {"system": "eIF4F complex", "test": "m7GTP pull-down of eIF4F complex in TNBC cells", "assay_type": "cell-based, human", "settings": "20 µM, 24 h, MDA-MB-231 and MDA-MB-468", "method": "eIF4F complex in cell extracts was detected using affinity chromatography 7-methyl GTP (m7GTP)-Sepharose as described previously. Briefly, MDA-MB-231 treated with 20 μM VNLG-152 for 24 h were lysed in buffer containing 20 mM Tris-HCl (pH 7.4), 150 mM NaCl, 1 mM EDTA, 1 mM EGTA, 1 mM β-glycerophosphate, 1 mM Na3VO4, 1% Triton X-100, 2.5 mM sodium pyrophosphate, and protease inhibitor cocktail, on ice for 15 min. After centrifugation at 12,000× g for 15 min at 4 °C, the supernatants were collected and incubated with m7GTP-Sepharose (GE Healthcare Bio-Sciences Corp./Amersham, Piscataway, NJ, USA) at 4 °C for 2 h with constant shaking. Beads were washed three times with lysis buffer and three times with 1× Phosphate Buffered Salin, (PBS). The samples were then denatured, and the supernatants were then loaded to SDS-PAGE for immunoblotting."}, "[2]": {"system": "mTORC1 signaling", "test": "Western blot of mTORC1 signaling in MDA-MB-231 and MDA-MB-468 cells", "assay_type": "cell-based, human", "settings": "72 h", "method": "MDA-MB-231, MDA-MB-468, MDA-MB-436, MDA-MB-453, HCC-1806, and MFM-223 cells were purchased from American Type Culture Collection (ATCC, Manassas, VA, USA), and authenticated at the Biopolymer/Genomics Core Facility, University of Maryland Baltimore. Cells were tested for mycoplasma contamination at the University of Maryland Marlene and Stewart Greenebaum Cancer Center (UMGCC) Translational Shared Service. Cells were cultured in the recommended media supplemented with 10% FBS and plated 1 day prior to treatment. Cells were treated with the indicated dose and time in the figure at 37 °C in 5% CO2. Protein lysates were harvested in RIPA lysis buffer (Sigma). Western blotting was done as described previously with antibodies described above."}, "[3]": {"system": "Br-001 tumor xenografts", "test": "Patient-derived TNBC xenograft (PDX), IP", "assay_type": "in vivo, mice", "settings": "10 mg/kg/day IP", "method": "Female NSG (NOD.Cg-PrkdcscidIl2rgtm1Wjl/SzJ) mice (Jackson Laboratory) 5–6 weeks of age were housed under complete aseptic conditions, fed autoclaved pellets and sterile water ad libitum. Primary triple negative breast cancer tissue from a patient in University of Maryland Medical Center ([…]) was excised during surgery, de-identified and then implanted into the mammary fat pad of female NSG mice. After expansion and viable freeze back, breast PDX (Br-001) was grown in three mice as a subcutaneous tumor. When tumors reached approximately 600–800 mm^3, mice were euthanized, tumors excised aseptically and cut into 3 mm × 3 mm pieces and re-implanted subcutaneously in female NSG mice. The established xenografts were subsequently passaged from mouse to mouse to expand xenograft numbers. […] Tumors were measured and processed as described for the MDA-MB-231 xenograft model."}, "[4]": {"system": "Mnk1/2", "set-up": "method as in PMID 24504069", "settings": "cited from earlier work"}}, "data": [{"molecule": "CC1=C(/C=C/C(C)=C/C=C/C(C)=C/C(=O)Nc2ccc(F)cc2)C(C)(C)CCC1n1ccnc1", "note": "(racemic) [VNLG-152R, 4-(±)-(1H-imidazol-1-yl)-N-(4-fluorophenyl)-(E)-retinamide]", "values": [{"measurement": "eIF4G and 4E-BP1 association with eIF4E", "setting": "[1]", "value": "decreased eIF4G and increased eukaryotic translation initiation factor 4E-binding protein 1 (4E-BP1) association with eIF4E"}, {"measurement": "depletion of p-mTOR (Ser2448), p4E-BP1, peIF4E and p-p70 S6K", "setting": "[2]", "value": "strong dose-dependent depletion"}, {"measurement": "changes in body weights", "setting": "[3]", "value": "No significant changes in body weights were observed"}, {"measurement": "tumor growth inhibition (TGI)", "setting": "[3]; 5 days a week, 17 days", "value": 73.3, "unit": "%"}, {"measurement": "inhibition of Mnk1/2 kinase activities", "setting": "[4]", "value": "no inhibition of Mnk1/2 kinase activities"}]}]}
